Laboratory results published in the supplement of paper PMC3493320.

System: NCI-H295R
Test: IC50 (antiproliferative, ATP content)
Settings: 48 h
How it was run: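 Adrenocortical carcinoma cells were plated at 1500 per well in 1536-well plates in serum-free DMEM with ITS supplement, left overnight, then given library compounds by pin transfer at 8 final concentrations spanning 0.6 nM to 46 µM and held 48 h at 37 °C, 5% CO2. ATP was measured as CellTiter-Glo luminescence after 20 min at room temperature and scaled between vehicle and positive-control wells. A four-parameter logistic model was fitted to each series. The IC50 was taken from these fits, and compounds without a concentration response were recorded as above the top dose.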

Compound | IC50
Clc1cccc(SC2CCNCC2)n1 | > 46 µM
NCC[C@H](O)C(=O)N[C@@H]1C[C@H](N)[C@@H](O[C@H]2O[C@H](CN)CC[C@H]2N)[C@H](O)[C@H]1O[C@H]1O[C@H](CO)[C@@H](O)[C@H](N)[C@H]1O.O=S(=O)(O)O | > 46 µM
O=C1C[N+]([O-])=C(c2ccccc2)c2cc(Cl)ccc2N1 | > 46 µM
CCCCCC(C)N.CCCCCC(C)N.O=S(=O)(O)O (stereo unspecified) | > 46 µM
CC(C)NCC(O)COc1ccc(COCCOC(C)C)cc1.CC(C)NCC(O)COc1ccc(COCCOC(C)C)cc1.O=C(O)/C=C/C(=O)O (stereo unspecified) | > 46 µM
Cl.c1cc2c(c(N3CCNCC3)c1)OCCO2 | > 46 µM
Cc1cc(C(=O)O)c(C)n1-c1cccc(C(=O)O)c1.O=C1C[C@@H]2OCC=C3CN4CC[C@]56c7ccccc7N1[C@H]5[C@H]2[C@H]3C[C@H]46 | > 46 µM
CO/N=C1\CN(c2nc3c(cc2F)c(=O)c(C(=O)O)cn3C2CC2)CC1CN.CS(=O)(=O)O (stereo unspecified) | > 46 µM
COc1ccc(C(=O)c2ccccc2O)c(O)c1 | > 46 µM
NC(=O)OCC(O)COc1ccc(Cl)cc1 (stereo unspecified) | > 46 µM
CCOC(=O)Nc1ccc2c(c1)N(C(=O)CCN1CCOCC1)c1ccccc1S2.Cl | > 46 µM
CC(=O)OCC(=O)[C@@]1(O)CC[C@H]2[C@@H]3CCC4=CC(=O)C=C[C@]4(C)[C@@]3(F)[C@@H](O)C[C@@]21C | > 46 µM
Cc1ncc(CO)c(C=O)c1O | > 46 µM
CC1CCC(NC(=O)N(CCCl)N=O)CC1 (stereo unspecified) | > 46 µM
CC(C)(C)c1ccc2c(S(=O)(=O)[O-])c(C(C)(C)C)ccc2c1.[Na+] | > 46 µM
CC1CCN(CCCC(=O)c2ccc(F)cc2)CC1 | > 46 µM
CNCCC(Oc1ccccc1OC)c1ccccc1 (stereo unspecified) | > 46 µM
CCN(CC)CCOC(=O)C(c1ccccc1)C1CCCCC1.Cl (stereo unspecified) | > 46 µM
Nc1nc(=O)c(Br)c(-c2ccccc2)[nH]1 | > 46 µM
COC(F)(F)C(Cl)Cl | > 46 µM
CCN(C)C(=O)Oc1cccc([C@H](C)N(C)C)c1.O=C(O)[C@@H](O)[C@H](O)C(=O)O | > 46 µM
O=c1[nH]cc(F)c(=O)[nH]1 | > 46 µM
CCCCC[C@H](O)/C=C/[C@H]1[C@H](O)CC(=O)[C@@H]1CCCCCCC(=O)O | > 46 µM
N[C@@H](Cc1ccc(O)c(O)c1)C(=O)O | > 46 µM
COc1cc(/C=C/C(=O)CC(=O)/C=C/c2ccc(O)c(OC)c2)ccc1O | > 46 µM
c1ccc2sc(SSc3nc4ccccc4s3)nc2c1 | > 46 µM
CCOC(C)=O | > 46 µM

Continued, values first:

IC50 | Compound
> 46 µM | O=C(Oc1cccc2cccnc12)c1ccccc1
> 46 µM | CCc1ccc(C(=O)C(C)CN2CCCCC2)cc1.Cl (stereo unspecified)
> 46 µM | CCCCCCCCCCCC(=O)OC[C@@H](O)[C@H]1OC[C@H](O)[C@H]1O
> 46 µM | O=C(C)N1[C@](C[C@](O)([H])C1)([H])[C@@](O)=O
> 46 µM | C[C@H](CCC(=O)O)[C@H]1CC[C@H]2[C@@H]3C(=O)C[C@@H]4CC(=O)CC[C@]4(C)[C@H]3CC(=O)[C@]12C
> 46 µM | C=C1c2cccc(O)c2C(=O)C2=C(O)[C@]3(O)C(=O)C(C(N)=O)=C(O)[C@@H](N(C)C)[C@@H]3[C@@H](O)[C@H]12.Cl
> 46 µM | CCCCCCCCCCCCCCCCCCOC[C@H](COP(=O)([O-])OCC[N+](C)(C)C)OC
> 46 µM | O=[C@@](OCC)[C@@H](N[C@@H](C)C(N2C(N(C)C[C@H]2[C@](O)=O)=O)=O)CCC1=CC=CC=C1.Cl
> 46 µM | CC1(C)S[C@@H]2[C@H](NC(=O)C(C(=O)[O-])c3ccsc3)C(=O)N2[C@H]1C(=O)[O-].[Na+].[Na+] (stereo partly specified)
> 46 µM | Nc1cccc2c1CN(C1CCC(=O)NC1=O)C2=O (stereo unspecified)
> 46 µM | NC(=O)C1c2ccccc2CCc2ccccc21
> 46 µM | CSc1ccc(C(=O)c2[nH]c(=O)[nH]c2C)cc1
> 46 µM | N=C\2/N=C3/O[C@H]1[C@H](O)[C@@H](CO)O[C@H]1N3/C=C/2
> 46 µM | CC(C)(C)c1ccc(C(O)CCCN2CCC(C(O)(c3ccccc3)c3ccccc3)CC2)cc1 (stereo unspecified)
> 46 µM | CCCCCCCCOc1ccccc1C(=O)Nc1ccc(C(=O)OCC[N+](C)(CC)CC)cc1.[Br-]
> 46 µM | CC(C)=CCC/C(C)=C/CC/C(C)=C/CC/C(C)=C/CC1=C(C)C(=O)c2ccccc2C1=O
> 46 µM | Cc1c(C)n(CCN(C)C)c2ccc(C(=O)OCCN(C)C)cc12
> 46 µM | COCCCC/C(=N\OCCN)c1ccc(C(F)(F)F)cc1
> 46 µM | Cl.Nc1c(Br)cc(Br)cc1CN[C@H]1CC[C@H](O)CC1
> 46 µM | COC(=O)N/N=C/c1c[n+]([O-])c2ccccc2[n+]1[O-]
> 46 µM | CC(=O)Nc1ccc(OC(C)=O)cc1
> 46 µM | CCC(=O)Nc1ccc(O)cc1
> 46 µM | CSCCC(N)C(=O)O (stereo unspecified)
> 46 µM | O=[C@](OC)[C@H]3[C@@]2([H])C[C@](N4C[C@]([H])2C[C@H](OC)[C@@H]3OC)([H])C1=C(CC4)C(C=C5)=C(C=C5OC)N1.Cl
